According to patent US5482934A, “Pregna-1,4-diene3,20-dione-16-17-acetal-21 esters, process for their preparation, composition, and methods for the treatment of inflammatory conditions” (priority 1994, dated 1996):

What was measured:
[1] = system: thymus; set-up: species or system Male Wistar rats; conditions: rat, in vivo, 10080 min
From the text: All of the steroids described in this invention are pharmacologically active compounds. The glucocorticoid activity of these products was studied in comparison with that of budesonide: pregna-1,4-diene-3,20-dione, 16,17-butylidenebis(oxy)-11-21-dihydroxy-(11β,16α). The pharmacologic action on the acetonides triamcinolone acetonide and flunisolide was also studied.
(§1) Anti-inflammatory effects of the compounds were screened in the cotton pellet granuloma bioassay for identification of lead compounds. (Meier et al., Eperimentia 6, 469, 1950). Male Wistar rats were used, ranging in weight between 90 and 120 g, at the rate of 10 animals per group, previously identified and quartered in individual cages. The animals had free access to feed and drink throughout the trial.
(§2) Cotton pellets weighing exactly 20 mg were prepared, sterilized for 2 hr. at 160° C. soaked with 50 λl solution of the product or with the solvent before implantation, and subsequently the solvent is evaporated before application. The implantation was performed subcutaneously in the axillary zone of the animals previously anesthetized with ether (right axilla pellet with product, left axilla pellet with solvent). Animals in which pellets without product were implanted were used as controls.
(§3) The drug was applied in alcohol solution at 4 dosage levels. Once the pellets were implanted, the animals were kept under normal rearing conditions, isolated for 7 days and then weighed, after which they were sacrificed by exsanguination.
Extraction and weighing of the thymus and adrenals were performed in all animals and a fluorometric determination of the cortisol plasma levels was made. We consider the variation in these parameters indicative of the systemic glucocorticoid activity of the products.
(§4) Anti-inflammatory ED50 (topical effect), thymus inhibition ED50 (systemic effect), therapeutic index (systemic ED50 /topical ED50), and the therapeutic index relative to budesonide (=1).
(§5) All of the ED50 values were calculated from the linear regression lines with the confidence limits.

[2] = system: cotton-pellet-induced granuloma; assay: cotton pellet granuloma bioassay, topical anti-inflammatory activity (inhibitory effect on granuloma weight); assay type: in vivo, Male Wistar rats; conditions: for Topical anti-inflammatory activity (Cotton Pellet), ED50: local application on implanted pellet, 4 dosage levels, 7 days; for Therapeutic index systemic ED50 / topical ED50: thymus inhibition ED50 / cotton pellet ED50, 10080 min
From the text: The glucocorticoid activity of these products was studied in comparison with that of budesonide: pregna-1,4-diene-3,20-dione, 16,17-butylidenebis(oxy)-11-21-dihydroxy-(11β,16α). The pharmacologic action on the acetonides triamcinolone acetonide and flunisolide was also studied.
as §1, §2, §3
The topical activity was determined by the inhibitory effect on the weight of the cotton-pellet-induced granuloma; the granulomas were extracted and weighed (pellet and connective tissue surrounding them, dried for 24 hr in a 60° oven, and weighed).
as §4, §5

[3] = corticosteroids used in aerosol form; cited from earlier work

| Structure (SMILES) | Systemic glucocorticoid activity (Thymus inhibition), ED50 [1] [μg/pellet] | Topical anti-inflammatory activity (Cotton Pellet), ED50 [2] [μg/pellet] | Therapeutic index systemic ED50 / topical ED50 [2] | effect in aerosol form [3] |
| --- | --- | --- | --- | --- |
| CC(C)C(=O)OCC(=O)C12OC(C3CCCCC3)OC1CC1C3CC(F)C4=CC(=O)C=CC4(C)C3(F)C(O)CC12C [Compound 13, (22R,S)-pregna 1,4-diene-3,20-dione-16,17-(cyclohyxylmethylidine)-bis-(oxy)-6,9-difluoro-11-hydroxy-21-(methyl-1-oxo-propoxy)-(11β,16α)] | 54 | 4.5 | 12 |  |
| CCCCC1OC2CC3C4CCC5=CC(=O)C=CC5(C)C4C(O)CC3(C)C2(C(=O)COC(C)=O)O1 [Compound 10, (22R,S)-of pregna 1,4-diene-3,20-dione-21-(acetyloxy)-11-hydroxy-16,17-(pentylidene) bis(oxy)-(11β,16α)] | 583.2 | 59.9 | 9.7 |  |
| CC(C)C(=O)OCC(=O)C12OC(C3CCCCC3)OC1CC1C3CC(F)C4=CC(=O)C=CC4(C)C3(F)C(O)CC12C (centres unmarked) [Compound 15] | 56.3 | 5.2 | 10.8 |  |
| CC(C)C(=O)OCC(=O)C12OC(C3CCCCC3)OC1CC1C3CCC4=CC(=O)C=CC4(C)C3C(O)CC12C (centres unmarked) [Compound 9] | 667.1 | 25.4 | 26.2 |  |
| CC(C)C(=O)OCC(=O)C12OC(C3CCCCC3)OC1CC1C3CCC4=CC(=O)C=CC4(C)C3C(O)CC12C [Compound 8, (22,S)-pregna 1,4-diene-3,20-dione 16,17-[[cyclohexyl-methylidyne]bis (oxy)]-11-hydroxy-21-(2-methyl-1-oxo-propoxy)-(11β,16α)] | 608 | 20.5 | 29.6 |  |
| CC1(C)O[C@@H]2C[C@H]3[C@@H]4C[C@H](F)C5=CC(=O)C=C[C@]5(C)[C@H]4[C@@H](O)C[C@]3(C)[C@]2(C(=O)CO)O1 [FLUNISOLIDE, flunisolide, reference compound] | 156 | 351.6 | 0.44 | highly positive effect |
| CCCCC1OC2CC3C4CCC5=CC(=O)C=CC5(C)C4C(O)CC3(C)C2(C(=O)COC(C)=O)O1 (centres unmarked) [Compound 12] | 592.2 | 74.7 | 7.9 |  |
| CCCC1O[C@@H]2C[C@H]3[C@@H]4CCC5=CC(=O)C=C[C@]5(C)[C@H]4[C@@H](O)C[C@]3(C)[C@]2(C(=O)CO)O1 (stereo partly drawn) [BUDESONIDE, pregna-1,4-diene-3,20-dione, 16,17-butylidenebis(oxy)-11-21-dihydroxy-(11β,16α), reference compound] | 178.6 | 163.6 | 1.09 | highly positive effect |
| CCC(=O)OCC(=O)[C@@]1(OC(=O)CC)[C@@H](C)C[C@H]2[C@@H]3CCC4=CC(=O)C=C[C@]4(C)[C@@]3(Cl)[C@@H](O)C[C@@]21C [beclomethasone dipropionate] |  |  |  | highly positive effect |
| CC1(C)O[C@@H]2C[C@H]3[C@@H]4CCC5=CC(=O)C=C[C@]5(C)[C@@]4(F)[C@@H](O)C[C@]3(C)[C@]2(C(=O)CO)O1 (stereo in doubt) [TRIAMCINOLONE ACETONIDE, triamcinolone acetonide, reference compound] | 156.4 | 220.7 | 0.7 | highly positive effect |
| CC(C)C(=O)OCC(=O)C12OC(C3CCCCC3)OC1CC1C3CCC4=CC(=O)C=CC4(C)C3C(O)CC12C [Compound 7, (22R,S)-pregna 1,4-diene-3,20-dione, 16,17-[[cyclohexylmethylidyne]bis (oxy)]-11-hydroxy-21-(2-methyl-1-oxo-propoxy)-(11β,16α)] | 614.7 | 21.7 | 28.3 |  |
| CC(C)C(=O)OCC(=O)C12OC(C3CCCCC3)OC1CC1C3CC(F)C4=CC(=O)C=CC4(C)C3(F)C(O)CC12C [Compound 14, (22S)-pregna-1,4-diene-3,20-dione-16,17-(cyclohexylmethylidine)-bis-(oxy)-6,9-difluoro-11-hydroxy-21-(s-methyl-1-oxo-propoxy)-(11β,16α)] | 49 | 3.6 | 13.6 |  |
| CCCCC(=O)O[C@]1(C(=O)CO)[C@@H](C)C[C@H]2[C@@H]3CCC4=CC(=O)C=C[C@]4(C)[C@@]3(F)[C@@H](O)C[C@@]21C [betamethasone valerate] |  |  |  | highly positive effect |
| CCCCC1OC2CC3C4CCC5=CC(=O)C=CC5(C)C4C(O)CC3(C)C2(C(=O)COC(C)=O)O1 [Compound 11, (22S)-pregna 1,4-diene-3,20-dione-21-(acetyloxy)-11-hydroxy-16,17-(pentylidene)-bis-(oxy)-(11β,16α)] | 555.3 | 43 | 12.9 |  |
